System: NCI-H23 complex spheroids with HUVEC/MSC, viability
Assay: Anticancer human tumor NCI-H23 cell line growth inhibition [RAS];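 also: spheroids exposed to compound for 7 days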;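 as to viability, T/C: 100% = DMSO vehicle control viability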
Conditions: for IC50: curve of first compound; for viability, T/C: stronger effect = lower value
In short: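 Agents were tested in combination matrices in half-log decrements from a top concentration at or near clinical Cmax (10 microM if undetermined). Targets were multi-cell spheroids of tumour lines plus HUVEC and MSC stromal cells.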

[1] = second compound 0.000949 µM, first compound 0.0316 µM
[2] = second compound 0.000949 µM, first compound 0.1 µM
[3] = second compound 0.000949 µM, first compound 0.316 µM
[4] = second compound 0.000949 µM, first compound 1 µM
[5] = second compound 0.000949 µM, first compound 3.16 µM
[6] = second compound 0.000949 µM, first compound 10 µM
[7] = second compound 0.003 µM, first compound 0.0316 µM
[8] = second compound 0.003 µM, first compound 0.1 µM
[9] = second compound 0.003 µM, first compound 0.316 µM
[10] = second compound 0.003 µM, first compound 1 µM
[11] = second compound 0.003 µM, first compound 3.16 µM
[12] = second compound 0.003 µM, first compound 10 µM
[13] = second compound 0.00949 µM, first compound 0.0316 µM
[14] = second compound 0.00949 µM, first compound 0.1 µM
[15] = second compound 0.00949 µM, first compound 0.316 µM
[16] = second compound 0.00949 µM, first compound 1 µM
[17] = second compound 0.00949 µM, first compound 3.16 µM
[18] = second compound 0.00949 µM, first compound 10 µM
[19] = second compound 0.03 µM, first compound 0.0316 µM
[20] = second compound 0.03 µM, first compound 0.1 µM
[21] = second compound 0.03 µM, first compound 0.316 µM
[22] = second compound 0.03 µM, first compound 1 µM
[23] = second compound 0.03 µM, first compound 3.16 µM
[24] = second compound 0.03 µM, first compound 10 µM
[25] = second compound 0.0949 µM, first compound 0.0316 µM
[26] = second compound 0.0949 µM, first compound 0.1 µM
[27] = second compound 0.0949 µM, first compound 0.316 µM
[28] = second compound 0.0949 µM, first compound 1 µM
[29] = second compound 0.0949 µM, first compound 3.16 µM
[30] = second compound 0.0949 µM, first compound 10 µM
[31] = second compound 0.3 µM, first compound 0.0316 µM
[32] = second compound 0.3 µM, first compound 0.1 µM
[33] = second compound 0.3 µM, first compound 0.316 µM
[34] = second compound 0.3 µM, first compound 1 µM
[35] = second compound 0.3 µM, first compound 3.16 µM
[36] = second compound 0.3 µM, first compound 10 µM

Structure (SMILES): CC(C)NCC(C(=O)N1CCN(c2ncnc3c2C(C)CC3O)CC1)c1ccc(Cl)cc1 (stereo unspecified) + CCn1c(-c2cccnc2C(C)OC)c2c3cc(ccc31)N1CCOC(CC(NC(=O)C(C(C)C)N(C)C(=O)C3(F)CCN(C(=O)C#CC(C)(C)N(C)C)CC3)C(=O)N3CCCC(N3)C(=O)OCC(C)(C)C2)C1
- IC50 (second compound 0.000949 µM): < 0.0316 µM
- IC50 (second compound 0.003 µM): < 0.0316 µM
- IC50 (second compound 0.00949 µM): < 0.0316 µM
- IC50 (second compound 0.03 µM): < 0.0316 µM
- IC50 (second compound 0.0949 µM): < 0.0316 µM
- IC50 (second compound 0.3 µM): < 0.0316 µM
- viability, T/C [1]: 33.6%
- viability, T/C [2]: 35.1%
- viability, T/C [3]: 23.7%
- viability, T/C [4]: 23.4%
- viability, T/C [5]: 17.5%
- viability, T/C [6]: 11.6%
- viability, T/C [7]: 33.8%
- viability, T/C [8]: 27.3%
- viability, T/C [9]: 22%
- viability, T/C [10]: 18.7%
- viability, T/C [11]: 18.1%
- viability, T/C [12]: 10.3%
- viability, T/C [13]: 28.9%
- viability, T/C [14]: 24.2%
- viability, T/C [15]: 25.3%
- viability, T/C [16]: 19.6%
- viability, T/C [17]: 14.9%
- viability, T/C [18]: 12.3%
- viability, T/C [19]: 30.9%
- viability, T/C [20]: 25.3%
- viability, T/C [21]: 25.2%
- viability, T/C [22]: 20.4%
- viability, T/C [23]: 13.8%
- viability, T/C [24]: 12.3%
- viability, T/C [25]: 24.3%
- viability, T/C [26]: 26.8%
- viability, T/C [27]: 22.6%
- viability, T/C [28]: 19.6%
- viability, T/C [29]: 13.3%
- viability, T/C [30]: 12.5%
- viability, T/C [31]: 21.4%
- viability, T/C [32]: 23.2%
- viability, T/C [33]: 22%
- viability, T/C [34]: 16.6%
- viability, T/C [35]: 11.6%
- viability, T/C [36]: 13.5%

Structure (SMILES): CC(Nc1ccc2c(c1)OCCn1cc(N3C(=O)OCC3C(F)F)nc1-2)C(N)=O (stereo unspecified) + CCn1c(-c2cccnc2C(C)OC)c2c3cc(ccc31)N1CCOC(CC(NC(=O)C(C(C)C)N(C)C(=O)C3(F)CCN(C(=O)C#CC(C)(C)N(C)C)CC3)C(=O)N3CCCC(N3)C(=O)OCC(C)(C)C2)C1
- IC50 (second compound 0.000949 µM): < 0.0316 µM
- IC50 (second compound 0.003 µM): < 0.0316 µM
- IC50 (second compound 0.00949 µM): < 0.0316 µM
- IC50 (second compound 0.03 µM): < 0.0316 µM
- IC50 (second compound 0.0949 µM): < 0.0316 µM
- IC50 (second compound 0.3 µM): < 0.0316 µM
- viability, T/C [1]: 29.1%
- viability, T/C [2]: 22.3%
- viability, T/C [3]: 21%
- viability, T/C [4]: 23.1%
- viability, T/C [5]: 21.2%
- viability, T/C [6]: 14%
- viability, T/C [7]: 28.8%
- viability, T/C [8]: 23.6%
- viability, T/C [9]: 19.2%
- viability, T/C [10]: 21%
- viability, T/C [11]: 21.1%
- viability, T/C [12]: 13.9%
- viability, T/C [13]: 28.1%
- viability, T/C [14]: 21.2%
- viability, T/C [15]: 20.8%
- viability, T/C [16]: 19.1%
- viability, T/C [17]: 18.2%
- viability, T/C [18]: 14.7%
- viability, T/C [19]: 23.1%
- viability, T/C [20]: 24.4%
- viability, T/C [21]: 20.3%
- viability, T/C [22]: 18.3%
- viability, T/C [23]: 17%
- viability, T/C [24]: 16%
- viability, T/C [25]: 24.7%
- viability, T/C [26]: 21.1%
- viability, T/C [27]: 22.5%
- viability, T/C [28]: 20.7%
- viability, T/C [29]: 13.8%
- viability, T/C [30]: 16.6%
- viability, T/C [31]: 22.4%
- viability, T/C [32]: 21.3%
- viability, T/C [33]: 20.1%
- viability, T/C [34]: 15%
- viability, T/C [35]: 16.7%
- viability, T/C [36]: 14.9%

Structure (SMILES): O=C(c1ccc(F)c(F)c1Nc1ccc(I)cc1F)N1CC(O)([C@@H]2CCCCN2)C1 + CCn1c(-c2cccnc2C(C)OC)c2c3cc(ccc31)N1CCOC(CC(NC(=O)C(C(C)C)N(C)C(=O)C3(F)CCN(C(=O)C#CC(C)(C)N(C)C)CC3)C(=O)N3CCCC(N3)C(=O)OCC(C)(C)C2)C1
- IC50 (second compound 0.000949 µM): < 0.00316 µM
- IC50 (second compound 0.003 µM): 0.026 µM
- IC50 (second compound 0.00949 µM): < 0.00316 µM
- IC50 (second compound 0.03 µM): < 0.00316 µM
- IC50 (second compound 0.0949 µM): < 0.00316 µM
- IC50 (second compound 0.3 µM): < 0.00316 µM
- viability, T/C (second compound 0.000949 µM, first compound 0.00316 µM): 32.3%
- viability, T/C (second compound 0.000949 µM, first compound 0.01 µM): 33.2%
- viability, T/C [1]: 26.2%
- viability, T/C [2]: 31.8%
- viability, T/C [3]: 16.7%
- viability, T/C [4]: 6.86%
- viability, T/C (second compound 0.003 µM, first compound 0.00316 µM): 112%
- viability, T/C (second compound 0.003 µM, first compound 0.01 µM): 54.8%
- viability, T/C [7]: 51.7%
- viability, T/C [8]: 42.8%
- viability, T/C [9]: 27.8%
- viability, T/C [10]: 10.3%
- viability, T/C (second compound 0.00949 µM, first compound 0.00316 µM): 34.5%
- viability, T/C (second compound 0.00949 µM, first compound 0.01 µM): 25.4%
- viability, T/C [13]: 29.8%
- viability, T/C [14]: 25.9%
- viability, T/C [15]: 14.6%
- viability, T/C [16]: 8.22%
- viability, T/C (second compound 0.03 µM, first compound 0.00316 µM): 30.1%
- viability, T/C (second compound 0.03 µM, first compound 0.01 µM): 30.7%
- viability, T/C [19]: 28.3%
- viability, T/C [20]: 25.4%
- viability, T/C [21]: 12.6%
- viability, T/C [22]: 9.45%
- viability, T/C (second compound 0.0949 µM, first compound 0.00316 µM): 29.1%
- viability, T/C (second compound 0.0949 µM, first compound 0.01 µM): 30.2%
- viability, T/C [25]: 30.9%
- viability, T/C [26]: 22.3%
- viability, T/C [27]: 11%
- viability, T/C [28]: 9.76%
- viability, T/C (second compound 0.3 µM, first compound 0.00316 µM): 29.4%
- viability, T/C (second compound 0.3 µM, first compound 0.01 µM): 26.3%
- viability, T/C [31]: 26.5%
- viability, T/C [32]: 19.8%
- viability, T/C [33]: 11%
- viability, T/C [34]: 9.07%

Reference: PubChem BioAssay AID2060885 (Molecular Pharmacology Branch, DTP, NCI, 2025)
